Experimental findings from patent US11384060B2, “Amide compounds and use thereof” (ALPHALA CO., LTD., priority 2017, dated 2022) are described below.

Read-outs that look alike come from different tables or passages of the source. Where only a bound is given, the exact number is not on record here.

The target of test [1] is T1, glucagon receptor (GCGR) overexpressed CHO-K1 cells or human primary hepatocytes (Homo sapiens, UniProt P47871).
T1 construct: expressed in transfected cells; host or cells: GCGR overexpressed CHO-K1 cells or human primary hepatocytes (endogenous receptor)
The test can be described thus: Glucagon cAMP inhibition assay (Cisbio cAMP Dynamic 2 HTRF). The format is cell-based. The essentials: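 GCGR-overexpressing CHO-K1 cells or human primary hepatocytes in HBSS with 0.1% BSA and 800 nM IBMX, pre-incubated 30 min with serially diluted compounds (1% DMSO final), then stimulated 30 min at room temperature with glucagon at its EC50. cAMP measured by HTRF after 60 min lysis; IC50 by non-linear regression.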

The target in a further test is T2, glucagon receptor (GCGR) (Homo sapiens, UniProt P47871).
T2 construct: expressed in transfected cells; host or cells: CHO-K1 cells overexpressing GCGR (membrane fractions)
The test can be described thus: I125-glucagon binding assay (competition, GCGR membrane fractions). The essentials: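 Membranes from CHO-K1 cells overexpressing GCGR, 7.5 μg/well in 50 mM Tris pH 7.4 with 0.5% BSA, were preincubated 5 min with serially diluted compounds, then given 0.0625 nM final I^125-glucagon for 30 min at 25° C. Bound label was filtered on PEI-coated GF/B and counted; IC50 by non-linear regression.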

T2 sequence (P47871 26-477): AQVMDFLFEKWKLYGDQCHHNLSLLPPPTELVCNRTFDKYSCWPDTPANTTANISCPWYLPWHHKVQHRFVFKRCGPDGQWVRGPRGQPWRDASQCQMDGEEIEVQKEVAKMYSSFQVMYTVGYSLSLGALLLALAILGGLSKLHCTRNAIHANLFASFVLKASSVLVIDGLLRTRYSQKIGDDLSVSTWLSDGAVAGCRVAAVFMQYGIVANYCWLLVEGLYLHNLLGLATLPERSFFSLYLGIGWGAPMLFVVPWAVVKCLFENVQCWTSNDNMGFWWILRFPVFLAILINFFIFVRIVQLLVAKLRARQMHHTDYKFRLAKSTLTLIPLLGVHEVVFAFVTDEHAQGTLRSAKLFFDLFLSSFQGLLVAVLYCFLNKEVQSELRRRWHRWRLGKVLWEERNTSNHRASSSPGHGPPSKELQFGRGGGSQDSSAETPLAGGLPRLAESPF
T1 sequence (P47871 26-477): as above

On to `CC(C)COC[C@@H](Cc1ccc(-c2ccc(C(F)(F)F)cc2)cc1)Nc1ccc(C(=O)NCCC(=O)O)cc1` [Compound 19-18], for which the “IC50 cAMP” value in test [1] is reported as 916.8 nM. The IC50 (in general, the concentration that inhibits the measured activity by half) on glucagon receptor (GCGR) is 688 nM.

With `CC(C)COC[C@@H](Cc1ccc(-c2ccc(OC(F)(F)F)cc2)cc1)Nc1ccc(C(=O)NCCC(=O)O)cc1` [Compound 19-19, (R)-3-(4-((1-isobutoxy-3-(4′-(trifluoromethoxy)-[1,1′-biphenyl]-4-yl)propan-2-yl)amino)benzamido)propanoic Acid], the “IC50 cAMP” value in test [1] is given as 582.5 nM. Besides, the IC50 at glucagon receptor (GCGR) came to 317 nM.

Consider `CC(C)COC[C@@H](Cc1ccc(-c2ccc(Cl)cc2Cl)cc1)Nc1ccc(C(=O)NCCC(=O)O)cc1` [Compound 19-20, (R)-3-(4-((1-(2′,4′-dichloro-[1,1′-biphenyl]-4-yl)-3-isobutoxypropan-2-yl)amino)benzamido)propanoic Acid], for which the “IC50 cAMP” value in test [1] is 822.4 nM. In addition, the IC50 at glucagon receptor (GCGR) is 1150 nM.

For `CC(C)COC[C@@H](Cc1ccc(-c2cc3ccccc3o2)cc1)Nc1ccc(C(=O)NCCC(=O)O)cc1` [Compound 19-21, (R)-3-(4-((1-(4-(benzofuran-2-yl)phenyl)-3-isobutoxypropan-2-yl)amino)benzamido)propanoic Acid], in test [1], the “IC50 cAMP” value amounted to 437.3 nM. At glucagon receptor (GCGR), this compound showed an IC50 of 269 nM.

Regarding `CCCOC[C@H](Cc1ccc(-c2ccc(C(F)(F)F)cc2)cc1)Nc1ccc(C(=O)NCCC(=O)O)cc1` [Compound 19-22, (S)-3-(4-((1-propoxy-3-(4′-(trifluoromethyl)-[1,1′-biphenyl]-4-yl)propan-2-yl)amino)benzamido)propanoic Acid], in test [1], the “IC50 cAMP” value amounted to 986.5 nM. In addition, the IC50 at glucagon receptor (GCGR) amounted to 745 nM.

On to `CCCOC[C@H](Cc1ccc(-c2cccc(C(F)(F)F)c2)cc1)Nc1ccc(C(=O)NCCC(=O)O)cc1` [Compound 19-23, (S)-3-(4-((1-propoxy-3-(3′-(trifluoromethyl)-[1,1′-biphenyl]-4-yl)propan-2-yl)amino)benzamido)propanoic Acid], for which the “IC50 cAMP” value in test [1] is 1126 nM. At glucagon receptor (GCGR), the IC50 worked out at 1310 nM.

`CCCOC[C@H](Cc1ccc(-c2ccc(OC(F)(F)F)cc2)cc1)Nc1ccc(C(=O)NCCC(=O)O)cc1` [Compound 19-24, (S)-3-(4-((1-propoxy-3-(4′-(trifluoromethoxy)-[1,1′-biphenyl]-4-yl)propan-2-yl)amino)benzamido)propanoic Acid]: the “IC50 cAMP” value in test [1] is 630.4 nM. Further, on glucagon receptor (GCGR), the IC50 came to 512 nM.

On to `CCCOC[C@H](Cc1ccc(-c2cccc(OC(F)(F)F)c2)cc1)Nc1ccc(C(=O)NCCC(=O)O)cc1` [Compound 19-25, (S)-3-(4-((1-propoxy-3-(3′-(trifluoromethoxy)-[1,1′-biphenyl]-4-yl)propan-2-yl)amino)benzamido)propanoic Acid], for which, in test [1], the “IC50 cAMP” value stood at 1513 nM. Moreover, the IC50 at glucagon receptor (GCGR) was found to be 1280 nM.

Take `CCCOC[C@H](Cc1ccc(-c2cc3ccccc3o2)cc1)Nc1ccc(C(=O)NCCC(=O)O)cc1` [Compound 19-26, (S)-3-(4-((1-(4-(benzofuran-2-yl)phenyl)-3-propoxypropan-2-yl)amino)benzamido)propanoic Acid]: in test [1], the “IC50 cAMP” value stood at 902.8 nM. Further, the IC50 on glucagon receptor (GCGR) amounted to 592 nM.

Take `CCCOC[C@H](Cc1ccc(-c2cc3ccccc3[nH]2)cc1)Nc1ccc(C(=O)NCCC(=O)O)cc1` [Compound 19-27, (S)-3-(4-((1-(4-(1H-indol-2-yl)phenyl)-3-propoxypropan-2-yl)amino)benzamido)propanoic Acid]: the “IC50 cAMP” value in test [1] was determined as 4952 nM. The compound also registered an IC50 on glucagon receptor (GCGR) of 455 nM.

Take `CC(C)COC[C@H](Cc1ccc(-c2cccc(C(F)(F)F)c2)cc1)Nc1ccc(C(=O)NCCC(=O)O)cc1` [Compound 19-28, (S)-3-(4-((1-isobutoxy-3-(3′-(trifluoromethyl)-[1,1′-biphenyl]-4-yl)propan-2-yl)amino)benzamido)propanoic Acid]: the “IC50 cAMP” value in test [1] is on record as 726 nM. The compound also yielded an IC50 at glucagon receptor (GCGR) of 872 nM.

As for `CC(C)COC[C@H](Cc1ccc(-c2ccccc2C(F)(F)F)cc1)Nc1ccc(C(=O)NCCC(=O)O)cc1` [Compound 19-29, (S)-3-(4-((1-isobutoxy-3-(2′-(trifluoromethyl)-[1,1′-biphenyl]-4-yl)propan-2-yl)amino)benzamido)propanoic Acid], the “IC50 cAMP” value in test [1] is given as 871 nM. Besides, the concentration for half-maximal inhibition (IC50) on glucagon receptor (GCGR) came out at 2120 nM.

As for `CC(C)COC[C@H](Cc1ccc(-c2cccc(OC(F)(F)F)c2)cc1)Nc1ccc(C(=O)NCCC(=O)O)cc1` [Compound 19-30, (S)-3-(4-((1-isobutoxy-3-(3′-(trifluoromethoxy)-[1,1′-biphenyl]-4-yl)propan-2-yl)amino)benzamido)propanoic Acid], the “IC50 cAMP” value in test [1] turned out to be 1104 nM. At glucagon receptor (GCGR), the IC50 amounted to 548 nM.

On to `CC(C)COC[C@H](Cc1ccc(-c2cc(F)c(F)c(F)c2)cc1)Nc1ccc(C(=O)NCCC(=O)O)cc1` [Compound 19-31, (S)-3-(4-((1-isobutoxy-3-(3′,4′,5′-trifluoro-[1,1′-biphenyl]-4-yl)propan-2-yl)amino)benzamido)propanoic Acid], for which the “IC50 cAMP” value in test [1] is on record as 1341 nM. Also, the IC50 on glucagon receptor (GCGR) was determined as 500 nM.

As for `CC(C)COC[C@H](Cc1ccc(-c2cc3ccccc3o2)cc1)Nc1ccc(C(=O)NCCC(=O)O)cc1` [Compound 19-32, (S)-3-(4-((1-(4-(benzofuran-2-yl)phenyl)-3-isobutoxypropan-2-yl)amino)benzamido)propanoic Acid], the “IC50 cAMP” value in test [1] stood at 1017 nM. The same compound gave an IC50 at glucagon receptor (GCGR) of 483 nM.

As for `CC(C)COC[C@H](Cc1ccc(-c2ccc(OC(F)(F)F)cc2)cc1)Nc1ccc(C(=O)NCCC(=O)O)cc1` [Compound 19-33, (S)-3-(4-((1-isobutoxy-3-(4′-(trifluoromethoxy)-[1,1′-biphenyl]-4-yl)propan-2-yl)amino)benzamido)propanoic Acid], the “IC50 cAMP” value in test [1] is reported as 472 nM. For the same compound, the concentration for half-maximal inhibition (IC50) on glucagon receptor (GCGR) was 284 nM.

For the compound `CC(C)COC[C@H](Cc1ccc(-c2ccc(C(F)(F)F)cc2)cc1)Nc1ccc(C(=O)NCCC(=O)O)cc1` [Compound 19-34, (S)-3-(4-((1-isobutoxy-3-(4′-(trifluoromethyl)-[1,1′-biphenyl]-4-yl)propan-2-yl)amino)benzamido)propanoic Acid], the “IC50 cAMP” value in test [1] is listed as 487 nM. The IC50 at glucagon receptor (GCGR) amounted to 380 nM.

In the case of `CC(C)(C)c1ccc(-c2nnc([C@H](Cc3ccc(-c4cc5ccccc5o4)cc3)Nc3ccc(C(=O)NCCC(=O)O)cc3)o2)cc1` [Compound 20-1, (S)-3-(4-((2-(4-(benzofuran-2-yl)phenyl)-1-(5-(4-(tert-butyl)phenyl)-1,3,4-oxadiazol-2-yl)ethyl)amino)benzamido)propanoic Acid], the “IC50 cAMP” value in test [1] came out at 1403 nM. Besides, the IC50 at glucagon receptor (GCGR) was determined as 201 nM.

With `CCC(C)[C@H](Nc1ccc(C(=O)NCCC(=O)O)cc1)c1nnc(-c2oc3ccccc3c2C)o1` (stereo partly drawn) [Compound 20-2, 3-(4-(((1S)-2-methyl-1-(5-(3-methylbenzofuran-2-yl)-1,3,4-oxadiazol-2-yl)butyl)amino)benzamido)propanoic Acid], the “IC50 cAMP” value in test [1] came out at 22191 nM. Besides, the IC50 at glucagon receptor (GCGR) turned out to be 974 nM.

`CCC(C)[C@H](Nc1ccc(C(=O)NCCC(=O)O)cc1)c1nnc(-c2ccc(C(C)(C)C)cc2)o1` (stereo partly drawn) [Compound 20-3, 3-(4-(((1S)-1-(5-(4-(tert-butyl)phenyl)-1,3,4-oxadiazol-2-yl)-2-methylbutyl)amino)benzamido)propanoic Acid]: in test [1], the “IC50 cAMP” value came out at 9163 nM. Also, on glucagon receptor (GCGR), the IC50 amounted to 801 nM.

In the case of `CC(C)[C@H](Nc1ccc(C(=O)NCCC(=O)O)cc1)c1nnc(-c2ccc(C(C)(C)C)cc2)o1` [Compound 20-4, (S)-3-(4-((1-(5-(4-(tert-butyl)phenyl)-1,3,4-oxadiazol-2-yl)-2-methylpropyl)amino)benzamido)propanoic Acid], in test [1], the “IC50 cAMP” value was 4853 nM. The compound also registered an IC50 on glucagon receptor (GCGR) of 1040 nM.

Take `Cc1cc(C)c(-c2ccc(C[C@H](Nc3ccc(C(=O)NCCC(=O)O)cc3)c3nnc(-c4ccc(C(C)(C)C)cc4)o3)cc2)c(C)c1` [Compound 20-5, (S)-3-(4-((1-(5-(4-(tert-butyl)phenyl)-1,3,4-oxadiazol-2-yl)-2-(2′,4′,6′-trimethyl-[1,1′-biphenyl]-4-yl)ethyl)amino)benzamido)propanoic Acid]: the “IC50 cAMP” value in test [1] is recorded as more than 30000 nM. The compound further registered an IC50 on glucagon receptor (GCGR) of 4860 nM.

Take `Cc1c(-c2nnc([C@H](Cc3ccc(-c4ccc(C(F)(F)F)cc4)cc3)Nc3ccc(C(=O)NCCC(=O)O)cc3)o2)oc2ccccc12` [Compound 20-6, (S)-3-(4-((1-(5-(3-methylbenzofuran-2-yl)-1,3,4-oxadiazol-2-yl)-2-(4′-(trifluoromethyl)-[1,1′-biphenyl]-4-yl)ethyl)amino)benzamido)propanoic Acid]: the “IC50 cAMP” value in test [1] is reported as more than 30000 nM. At glucagon receptor (GCGR), the IC50 is 2680 nM.

Take `Cc1c(-c2nnc([C@H](Cc3ccc(-c4ccc(C(F)(F)F)cc4)cc3)Nc3ccc(C(=O)NCCS(=O)(=O)O)cc3)o2)oc2ccccc12` [Compound 20-7, (S)-2-(4-((1-(5-(3-methylbenzofuran-2-yl)-1,3,4-oxadiazol-2-yl)-2-(4′-(trifluoromethyl)-[1,1′-biphenyl]-4-yl)ethyl)amino)benzamido)ethane-1-sulfonic Acid]: the “IC50 cAMP” value in test [1] is given as more than 30000 nM. At glucagon receptor (GCGR), this compound had an IC50 of more than 30000 nM.

With `CCCC[C@@H](Cc1noc(-c2ccc(C(C)(C)C)cc2)n1)Nc1ccc(C(=O)NCCC(=O)O)cc1` [Compound 21-1, (S)-3-(4-((1-(5-(4-(tert-butyl)phenyl)-1,2,4-oxadiazol-3-yl)hexan-2-yl)amino)benzamido)propanoic Acid], the “IC50 cAMP” value in test [1] (inhibition of glucagon (EC50 concentration) induced cAMP production) came to 170.4 nM. The compound further displayed an IC50 at glucagon receptor (GCGR) (competition with I125-glucagon 0.0625 nM, membrane fractions of GCGR overexpressed CHO-K1 cells) of 803 nM.
